Test results published in patent US20250263753A1, “BRIDGED CYCLE-BASED INHIBITORS OF DNA-DEPENDENT PROTEIN KINASE AND COMPOSITIONS AND APPLICATION IN GENE EDITING” (Juno Therapeutics, Inc., priority 2023, published 2025).
Read-outs that look alike come from different tables or passages of the source.

Tests used:
DNA-PK = DNA-PK (Homo sapiens (Human), UniProt P78527); assay: DNA-PK biochemical assay (Reaction Biology HotSpot kinase assay, 10 μM ATP)
Procedure: DNA-PK Biochemical Assay Using Reaction Biology's HotSpot Kinase Assay Protocol:
Reagent: Base Reaction buffer; 20 mM Hepes (pH 7.5), 10 mM MgCl2, 1 mM EGTA, 0.01% Brij35, 0.02 mg/ml BSA, 0.1 mM Na3VO4, 2 mM DTT, 1% DMSO Required cofactors are added individually to each kinase reaction.
Reaction Procedure: 1. Prepare substrate in freshly prepared Reaction Buffer; 2. Deliver any required cofactors to the substrate solution above; 3. Deliver kinase into the substrate solution and gently mix; 4. Deliver compounds in 100% DMSO into the kinase reaction mixture by Acoustic technology (Echo550; nanoliter range), incubate for 20 min at room temperature; 5. Deliver 33P-ATP into the reaction mixture to initiate the reaction; 6. Incubate for 2 hours at room temperature; 7. Detect kinase activity by P81 filter-binding method.

ATM = ATM (Homo sapiens (Human), UniProt Q13315); assay: ATM biochemical assay (Reaction Biology HTRF kinase assay, 10 μM ATP)
Procedure: Ataxia-Telangiectasia Mutated (ATM) Biochemical Assay Using Reaction Biology's HTRF Kinase Assay Protocol:
The assay detects kinase activity by antibody based HTRF assay. The GST-tagged p53 protein serves as substrate and Eu-labeled-antibody with specific phosphorylation site binds upon phosphorylation which is monitored by HTRF from the anti-GST-d2.
Reagent: Reaction buffer; 50 mM Hepes (pH 7.5), 150 mM NaCl, 10 mM MnCl2, 1% Glycerol, 0.01% Brij35, 1 mM DTT, 1% DMSO.
Substrate: Human p53 (aa2-393), RBC produced in E. coli, N-terminal GST-Tag, MW=70.42 kDa.
Detection; MAb Anti-p53-pS15-Eu cryptate, CisBio cat #61P08KAZ; MAb Anti GST-d2
Reaction Procedure: 1. Deliver 2× Enzyme in wells of reaction plate except No E control wells. Add buffer instead; 2. Deliver compounds in 100% DMSO into the kinase reaction mixture by Acoustic technology (Echo550; nanoliter range), incubate for 30 min at room temperature; 3. Deliver 2× substrate+ATP mixture into the reaction mixture to initiate the reaction; 4. Incubate for 2 hours at room temperature.
HTRF Detection: 1. Deliver 2× Stop/Detection mixture and incubate for 2 hours to overnight in the dark. 2. HTRF measurement (Ex/Em1/Em2=320/615/665 nm) in EnVision.

[1] = molecular target: PI3Kδ (His-PIK3CD/PIK3R1, p110 delta/p85 alpha) (Homo sapiens (Human), UniProt O00329); assay: PI3Kδ biochemical assay (HTRF/FRET probe); assay type: binding; conditions: class symbol
Procedure: Phosphoinositide 3-kinase (PI3K) Biochemical Assay: A solution was prepared containing 0.2 nM Anti-HIS-Terbium (Cisbio, 64CUSTAZU), 40 nM designed-probe and 1.0 nM His-PIK3CD/PIK3R1 (p110 delta/p85 alpha) in FRET Buffer (20 mM HEPES, 10 mM MgCl2, 0.015% Brij-35, 4 mM DTT, 0.05 mg/mL BSA).

[2] = molecular target: PI3Kα (His-PIK3CA/PIK3R1, p110 alpha/p85 alpha) (Homo sapiens (Human), UniProt P42336); assay: PI3Kα biochemical assay (HTRF/FRET probe); assay type: binding; conditions: class symbol
Procedure: Phosphoinositide 3-kinase α (PI3Kα) Biochemical Assay: A solution was prepared containing 0.2 nM Anti-HIS-Terbium (Cisbio, 64CUSTAZU), 3.7 nM designed-probe and 1.0 nM His-PIK3CA/PIK3R1 (p110 alpha/p85 alpha) in FRET Buffer (20 mM HEPES, 10 mM MgCl2, 0.015% Brij-35, 4 mM DTT, 0.05 mg/mL BSA).

[3] = read-out: DNA-PK HotSpot 10 μM ATP IC50, class symbol
[4] = read-out: ATM HTRF 10 μM ATP IC50, class symbol

ATM, sequence (Q13315 whole entry): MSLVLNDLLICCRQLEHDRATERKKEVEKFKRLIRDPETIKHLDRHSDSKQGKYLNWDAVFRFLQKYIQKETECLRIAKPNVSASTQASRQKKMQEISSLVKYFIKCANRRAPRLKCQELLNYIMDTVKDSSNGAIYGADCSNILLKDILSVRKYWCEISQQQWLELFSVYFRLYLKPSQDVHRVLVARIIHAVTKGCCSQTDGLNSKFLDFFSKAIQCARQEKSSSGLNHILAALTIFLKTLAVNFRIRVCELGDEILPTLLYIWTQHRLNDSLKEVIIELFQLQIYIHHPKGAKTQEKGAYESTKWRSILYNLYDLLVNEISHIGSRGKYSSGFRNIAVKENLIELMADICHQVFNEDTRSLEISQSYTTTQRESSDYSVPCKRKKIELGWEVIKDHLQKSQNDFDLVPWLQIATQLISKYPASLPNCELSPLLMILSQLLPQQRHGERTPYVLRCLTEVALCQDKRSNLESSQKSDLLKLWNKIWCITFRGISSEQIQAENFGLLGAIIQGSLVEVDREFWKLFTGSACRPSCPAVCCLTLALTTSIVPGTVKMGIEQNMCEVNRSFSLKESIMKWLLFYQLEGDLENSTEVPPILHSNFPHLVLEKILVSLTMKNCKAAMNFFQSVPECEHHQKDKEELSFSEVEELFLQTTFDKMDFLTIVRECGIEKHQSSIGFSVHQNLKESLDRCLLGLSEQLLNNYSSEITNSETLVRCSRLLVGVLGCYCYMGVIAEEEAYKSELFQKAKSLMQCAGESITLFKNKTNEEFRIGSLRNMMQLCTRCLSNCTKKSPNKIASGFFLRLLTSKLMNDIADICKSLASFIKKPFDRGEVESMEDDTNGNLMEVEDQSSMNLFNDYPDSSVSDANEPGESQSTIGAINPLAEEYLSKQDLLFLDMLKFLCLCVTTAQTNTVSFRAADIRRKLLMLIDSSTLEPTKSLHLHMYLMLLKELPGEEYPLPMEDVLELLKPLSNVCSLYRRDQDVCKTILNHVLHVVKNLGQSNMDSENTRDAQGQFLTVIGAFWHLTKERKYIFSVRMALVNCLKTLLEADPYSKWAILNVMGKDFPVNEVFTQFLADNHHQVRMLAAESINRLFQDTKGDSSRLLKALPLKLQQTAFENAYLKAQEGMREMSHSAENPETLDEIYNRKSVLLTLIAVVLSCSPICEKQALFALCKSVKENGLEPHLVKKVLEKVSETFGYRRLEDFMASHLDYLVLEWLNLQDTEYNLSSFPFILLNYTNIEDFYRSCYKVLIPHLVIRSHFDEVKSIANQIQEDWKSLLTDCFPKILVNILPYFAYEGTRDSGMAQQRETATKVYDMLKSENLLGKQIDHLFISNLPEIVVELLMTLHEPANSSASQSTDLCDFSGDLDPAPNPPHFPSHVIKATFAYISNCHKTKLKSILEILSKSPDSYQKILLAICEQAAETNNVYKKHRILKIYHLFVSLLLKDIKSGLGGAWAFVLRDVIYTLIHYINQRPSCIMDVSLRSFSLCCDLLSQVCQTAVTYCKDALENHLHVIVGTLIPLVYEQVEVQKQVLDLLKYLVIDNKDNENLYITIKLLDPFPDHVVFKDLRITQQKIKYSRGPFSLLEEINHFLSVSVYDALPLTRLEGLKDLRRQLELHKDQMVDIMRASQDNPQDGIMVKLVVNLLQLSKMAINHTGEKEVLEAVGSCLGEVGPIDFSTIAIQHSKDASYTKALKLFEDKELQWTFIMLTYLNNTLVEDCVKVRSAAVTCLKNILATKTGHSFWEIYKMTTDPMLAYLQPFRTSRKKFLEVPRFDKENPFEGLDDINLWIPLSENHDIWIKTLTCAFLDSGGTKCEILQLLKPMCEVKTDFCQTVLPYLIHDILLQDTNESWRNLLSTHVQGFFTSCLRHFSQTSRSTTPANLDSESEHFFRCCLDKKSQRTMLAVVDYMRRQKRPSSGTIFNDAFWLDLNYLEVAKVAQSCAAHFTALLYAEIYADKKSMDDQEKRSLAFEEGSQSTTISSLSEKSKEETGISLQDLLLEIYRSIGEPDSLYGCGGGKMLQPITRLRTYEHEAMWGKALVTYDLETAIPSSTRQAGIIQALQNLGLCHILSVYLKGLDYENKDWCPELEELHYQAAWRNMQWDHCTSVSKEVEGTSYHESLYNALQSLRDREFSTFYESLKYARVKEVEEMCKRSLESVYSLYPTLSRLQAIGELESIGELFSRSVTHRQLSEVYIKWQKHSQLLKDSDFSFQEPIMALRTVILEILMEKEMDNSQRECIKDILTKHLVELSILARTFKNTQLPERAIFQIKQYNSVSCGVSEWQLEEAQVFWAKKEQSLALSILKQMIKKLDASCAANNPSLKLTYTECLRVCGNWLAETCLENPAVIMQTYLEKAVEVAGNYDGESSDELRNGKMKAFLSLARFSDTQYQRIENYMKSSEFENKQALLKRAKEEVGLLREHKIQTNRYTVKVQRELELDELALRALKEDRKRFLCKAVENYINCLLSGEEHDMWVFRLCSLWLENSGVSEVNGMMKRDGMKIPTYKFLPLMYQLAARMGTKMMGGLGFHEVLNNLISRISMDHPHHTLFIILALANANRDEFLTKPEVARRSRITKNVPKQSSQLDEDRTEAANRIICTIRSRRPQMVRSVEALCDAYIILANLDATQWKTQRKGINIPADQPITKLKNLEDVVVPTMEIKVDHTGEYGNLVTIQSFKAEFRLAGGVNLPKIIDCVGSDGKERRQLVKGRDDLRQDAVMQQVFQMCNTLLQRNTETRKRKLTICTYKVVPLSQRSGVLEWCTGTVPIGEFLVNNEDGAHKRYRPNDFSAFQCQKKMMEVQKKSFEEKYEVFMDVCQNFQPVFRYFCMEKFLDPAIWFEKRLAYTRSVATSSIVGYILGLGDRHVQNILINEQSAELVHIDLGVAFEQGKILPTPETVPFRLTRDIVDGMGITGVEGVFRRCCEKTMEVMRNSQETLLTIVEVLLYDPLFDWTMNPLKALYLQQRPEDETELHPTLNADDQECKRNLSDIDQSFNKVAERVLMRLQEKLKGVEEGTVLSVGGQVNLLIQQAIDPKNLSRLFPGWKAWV
PI3Kα (His-PIK3CA/PIK3R1, p110 alpha/p85 alpha), sequence (P42336 whole entry, species assumed): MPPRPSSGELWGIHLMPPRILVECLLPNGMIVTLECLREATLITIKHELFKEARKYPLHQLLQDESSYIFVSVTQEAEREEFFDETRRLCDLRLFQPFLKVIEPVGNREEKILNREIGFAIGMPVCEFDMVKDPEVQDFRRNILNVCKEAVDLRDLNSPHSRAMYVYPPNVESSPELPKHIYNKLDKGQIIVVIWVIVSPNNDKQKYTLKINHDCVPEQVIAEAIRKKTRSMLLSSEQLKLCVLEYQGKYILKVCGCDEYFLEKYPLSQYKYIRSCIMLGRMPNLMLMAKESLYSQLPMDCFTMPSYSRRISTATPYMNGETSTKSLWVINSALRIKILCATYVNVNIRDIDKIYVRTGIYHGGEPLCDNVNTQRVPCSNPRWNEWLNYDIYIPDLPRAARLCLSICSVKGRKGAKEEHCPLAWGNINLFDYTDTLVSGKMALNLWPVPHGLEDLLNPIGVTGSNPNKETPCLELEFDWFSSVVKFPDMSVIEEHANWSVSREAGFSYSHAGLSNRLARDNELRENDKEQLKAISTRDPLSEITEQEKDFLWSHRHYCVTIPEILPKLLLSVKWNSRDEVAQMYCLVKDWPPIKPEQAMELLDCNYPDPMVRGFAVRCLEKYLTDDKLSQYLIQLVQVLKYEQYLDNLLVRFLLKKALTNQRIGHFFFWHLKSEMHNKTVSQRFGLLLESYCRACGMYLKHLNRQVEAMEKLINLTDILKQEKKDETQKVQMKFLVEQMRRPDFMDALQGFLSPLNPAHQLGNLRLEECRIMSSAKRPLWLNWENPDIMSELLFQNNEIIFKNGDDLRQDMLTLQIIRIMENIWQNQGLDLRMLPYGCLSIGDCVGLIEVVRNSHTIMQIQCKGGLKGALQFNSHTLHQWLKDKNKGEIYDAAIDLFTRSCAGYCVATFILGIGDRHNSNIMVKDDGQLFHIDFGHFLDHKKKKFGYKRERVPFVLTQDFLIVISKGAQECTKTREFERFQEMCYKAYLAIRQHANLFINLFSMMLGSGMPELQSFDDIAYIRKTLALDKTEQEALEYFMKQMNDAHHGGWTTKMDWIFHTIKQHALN
PI3Kα (His-PIK3CA/PIK3R1, p110 alpha/p85 alpha), sequence (P27986 whole entry partner, species assumed): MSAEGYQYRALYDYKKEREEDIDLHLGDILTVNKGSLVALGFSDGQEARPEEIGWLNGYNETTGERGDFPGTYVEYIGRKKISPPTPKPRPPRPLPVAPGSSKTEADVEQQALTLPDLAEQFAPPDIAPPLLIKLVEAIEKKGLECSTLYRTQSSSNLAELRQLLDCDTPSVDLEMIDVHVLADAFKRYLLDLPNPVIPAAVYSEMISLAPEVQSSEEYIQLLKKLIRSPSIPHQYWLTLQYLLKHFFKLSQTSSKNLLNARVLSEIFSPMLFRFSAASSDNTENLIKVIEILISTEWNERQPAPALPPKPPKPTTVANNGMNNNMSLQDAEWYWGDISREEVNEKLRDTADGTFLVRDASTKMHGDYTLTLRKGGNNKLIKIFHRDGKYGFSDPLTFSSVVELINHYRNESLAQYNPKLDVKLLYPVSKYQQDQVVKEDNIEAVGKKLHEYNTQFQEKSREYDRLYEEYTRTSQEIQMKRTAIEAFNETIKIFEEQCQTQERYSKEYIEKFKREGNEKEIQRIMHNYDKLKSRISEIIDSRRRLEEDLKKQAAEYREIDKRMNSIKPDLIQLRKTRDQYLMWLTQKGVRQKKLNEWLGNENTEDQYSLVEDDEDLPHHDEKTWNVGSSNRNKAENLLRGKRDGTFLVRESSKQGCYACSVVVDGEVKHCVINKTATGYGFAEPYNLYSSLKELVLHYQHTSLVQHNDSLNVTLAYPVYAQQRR

Row | IC50 (DNA-PK; [3]) | IC50 (ATM; class symbol) | IC50 [1] | IC50 [2] | IC50 (DNA-PK; class symbol) | IC50 (ATM; [4]) | SMILES
1 | < 1 nM | 10 to 100 nM | ≥ 1000 nM | ≥ 1000 nM |  |  | COC12CCC(N3CC(=O)N(C)c4cnc(Nc5cn6ncnc6cc5C)nc43)(CC1)C2 [Compound 62, 8-(4-methoxybicyclo[2.2.1]heptan-1-yl)-5-methyl-2-((7-methyl-[1,2,4]triazolo[1,5-a]pyridin-6-yl)amino)-7,8-dihydropteridin-6(5H)-one]
2 | < 1 nM | 10 to 100 nM | 100 to 1000 nM | 100 to 1000 nM |  |  | Cc1cc2nccnc2cc1Nc1ncc2c(C)nn(C34CC(C3)C4)c2n1 [Compound 49, N-(1-(bicyclo[1.1.1]pentan-1-yl)-3-methyl-1H-pyrazolo[3,4-d]pyrimidin-6-yl)-7-methylquinoxalin-6-amine]
3 |  | 1 to 10 nM | ≥ 1000 nM | 100 to 1000 nM | 1 to 10 nM |  | COC12CCC(n3c(=O)n(C)c4cnc(Nc5cc(F)c(-c6cnco6)cc5C)nc43)(C1)C2 [Compound 41, 2-((5-fluoro-2-methyl-4-(oxazol-5-yl)phenyl)amino)-9-(4-methoxybicyclo[2.1.1]hexan-1-yl)-7-methyl-7,9-dihydro-8H-purin-8-one]
4 |  |  | 100 to 1000 nM | ≥ 1000 nM | 10 to 100 nM | ≥ 1000 nM | Cc1cc2ncnn2cc1Nc1ncc2c(n1)n(C13CC(F)(C1)C3)c(=S)n2C [Compound 34, 9-(3-fluorobicyclo[1.1.1]pentan-1-yl)-7-methyl-2-((7-methyl-[1,2,4]triazolo[1,5-a]pyridin-6-yl)amino)-7,9-dihydro-8H-purine-8-thione]
5 | < 1 nM | 100 to 1000 nM | ≥ 1000 nM | 100 to 1000 nM |  |  | COC12CCC(n3c(=O)n(C)c4cnc(Nc5cc6nsnc6cc5C)nc43)(C1)C2 [Compound 30, 9-(4-methoxybicyclo[2.1.1]hexan-1-yl)-7-methyl-2-((6-methylbenzo[c][1,2,5]thiadiazol-5-yl)amino)-7,9-dihydro-8H-purin-8-one]
6 |  | 100 to 1000 nM | 10 to 100 nM | 100 to 1000 nM | 1 to 10 nM |  | Cc1cc2nccnc2cc1Nc1ncc2c(n1)n(C13CCC(O)(CC1)C3)c(=S)n2C [Compound 33, 9-(4-hydroxybicyclo[2.2.1]heptan-1-yl)-7-methyl-2-((7-methylquinoxalin-6-yl)amino)-7,9-dihydro-8H-purine-8-thione]
7 |  |  | ≥ 1000 nM | ≥ 1000 nM | 1 to 10 nM | ≥ 1000 nM | Cc1cc2c(cc1Nc1ncc3c(n1)N(C14CC(F)(C1)C4)C(=O)C31CC1)OCO2 [Compound 76, 7′-(3-fluorobicyclo[1.1.1]pentan-1-yl)-2′-((6-methylbenzo[d][1,3]dioxol-5-yl)amino)spiro[cyclopropane-1,5′-pyrrolo[2,3-d]pyrimidin]-6′(7′H)-one]
8 |  | 100 to 1000 nM | ≥ 1000 nM | ≥ 1000 nM | 1 to 10 nM |  | COC12CCC(n3c(=O)n(C)c4cnc(Nc5cn6ncnc6cc5C)nc43)(C1)C2 [Compound 29, 9-(4-methoxybicyclo[2.1.1]hexan-1-yl)-7-methyl-2-((7-methyl-[1,2,4]triazolo[1,5-a]pyridin-6-yl)amino)-7,9-dihydro-8H-purin-8-one]
9 |  | 100 to 1000 nM | ≥ 1000 nM | ≥ 1000 nM | 1 to 10 nM |  | Cc1cc2c(cc1Nc1ncc3c(n1)n(C14CC(C(F)(F)F)(C1)C4)c(=O)n3C)OCO2 [Compound 19, 7-methyl-2-((6-methylbenzo[d][1,3]dioxol-5-yl)amino)-9-(3-(trifluoromethyl)bicyclo[1.1.1]pentan-1-yl)-7,9-dihydro-8H-purin-8-one]
10 |  |  | ≥ 1000 nM | ≥ 1000 nM | 10 to 100 nM | ≥ 1000 nM | Cc1cc2c(cc1Nc1ncc3c(n1)N(C14CC(F)(C1)C4)CC(=O)N3C)OCO2 [Compound 56, 8-{3-Fluorobicyclo[1.1.1]pentan-1-yl}-5-methyl-2-[(6-methyl-2H-1,3-benzodioxol-5-yl)amino]-5,6,7,8-tetrahydropteridin-6-one]
11 |  | 100 to 1000 nM | 10 to 100 nM | 100 to 1000 nM | 1 to 10 nM |  | Cc1cc2ncnn2cc1Nc1ncc2c(n1)n(C13CCC(O)(CC1)C3)c(=S)n2C [Compound 31, 9-(4-hydroxybicyclo[2.2.1]heptan-1-yl)-7-methyl-2-((7-methyl-[1,2,4]triazolo[1,5-a]pyridin-6-yl)amino)-7,9-dihydro-8H-purine-8-thione]
12 |  | 10 to 100 nM | ≥ 1000 nM | 100 to 1000 nM | 10 to 100 nM |  | COC12CCC(n3c(=O)n(C)c4cnc(Nc5cc(F)c(-c6cnn(C)c6)cc5C)nc43)(C1)C2 [Compound 39, 2-((5-fluoro-2-methyl-4-(1-methyl-1H-pyrazol-4-yl)phenyl)amino)-9-(4-methoxybicyclo[2.1.1]hexan-1-yl)-7-methyl-7,9-dihydro-8H-purin-8-one]
13 | < 1 nM | 10 to 100 nM | 100 to 1000 nM | 10 to 100 nM |  |  | COC12CCC(n3c(=O)n(C)c4cnc(Nc5cc6nsnc6cc5C)nc43)(CC1)C2 [Compound 8, 9-(4-methoxybicyclo[2.2.1]heptan-1-yl)-7-methyl-2-((6-methylbenzo[c][1,2,5]thiadiazol-5-yl)amino)-7,9-dihydro-8H-purin-8-one]
14 |  | 100 to 1000 nM | ≥ 1000 nM | 100 to 1000 nM | 1 to 10 nM |  | COC12CCC(n3c(=O)n(C)c4cnc(Nc5cc(F)c(C(N)=O)cc5C)nc43)(C1)C2 [Compound 40, 2-fluoro-4-((9-(4-methoxybicyclo[2.1.1]hexan-1-yl)-7-methyl-8-oxo-8,9-dihydro-7H-purin-2-yl)amino)-5-methylbenzamide]
15 |  | 100 to 1000 nM | 100 to 1000 nM | ≥ 1000 nM | 1 to 10 nM |  | COC12CCC(N3CC(=O)N(C)c4cnc(Nc5cc6c(cc5C)OCO6)nc43)(CC1)C2 [Compound 63, 8-(4-methoxybicyclo[2.2.1]heptan-1-yl)-5-methyl-2-((6-methylbenzo[d][1,3]dioxol-5-yl)amino)-7,8-dihydropteridin-6(5H)-one]
16 |  | 100 to 1000 nM | ≥ 1000 nM | ≥ 1000 nM | 1 to 10 nM |  | Cc1cc2ncnn2cc1Nc1ncc2c(C)nn(C34CC(C3)C4)c2n1 [Compound 47, 1-(bicyclo[1.1.1]pentan-1-yl)-3-methyl-N-(7-methyl-[1,2,4]triazolo[1,5-a]pyridin-6-yl)-1H-pyrazolo[3,4-d]pyrimidin-6-amine]
17 | < 1 nM | 1 to 10 nM | 100 to 1000 nM | 100 to 1000 nM |  |  | COC12CCC(n3c(=O)n(C)c4cnc(Nc5cn6ncnc6cc5C)nc43)(CC1)CC2 [Compound 25, 9-(4-methoxybicyclo[2.2.2]octan-1-yl)-7-methyl-2-((7-methyl-[1,2,4]triazolo[1,5-a]pyridin-6-yl)amino)-7,9-dihydro-8H-purin-8-one]
18 |  | 100 to 1000 nM | 100 to 1000 nM | 100 to 1000 nM | 1 to 10 nM |  | Cc1cc2ncnn2cc1Nc1ncc2c(n1)N(C13CCC(O)(CC1)C3)CC(=O)N2C [Compound 51, 8-{4-Hydroxybicyclo[2.2.1]heptan-1-yl}-5-methyl-2-({7-methyl-[1,2,4]triazolo[1,5-a]pyridin-6-yl}amino)-5,6,7,8-tetrahydropteridin-6-one]
19 |  |  | ≥ 1000 nM | ≥ 1000 nM | 100 to 1000 nM | ≥ 1000 nM | Cc1cc2c(cc1Nc1ncc3c(n1)n(C14CC(F)(C1)C4)c(=S)n3C)OCO2 [Compound 35, 9-(3-fluorobicyclo[1.1.1]pentan-1-yl)-7-methyl-2-((6-methylbenzo[d][1,3]dioxol-5-yl)amino)-7,9-dihydro-8H-purine-8-thione]
